According to US20180235993A1 (priority 2000, published 2018):
Read-outs that look alike come from different tables or passages of the source.

Experiments:
[1] = Cytotoxicity assay (sulforhodamine B, CC50), Human Hepatoma; type: cell-based; settings: human; for CC50 at 4 days: 4 days incubation; for EC50 at 4 days: Table 13
Procedure: (§1) Cells were seeded at a rate of between 5×10^3 and 5×10^4/well into 96-well plates in growth medium overnight at 37° C. in a humidified CO2 (5%) atmosphere. New growth medium containing serial dilutions of the drugs was then added. After incubation for 4 days, cultures were fixed in 50% TCA and stained with sulforhodamineB. The optical density was read at 550 nm. The cytotoxic concentration was expressed as the concentration required to reduce the cell number by 50% (CC50).

YFV-17D = assay: microbe, parasite or virus in culture; type: cell-based, Yellow fever virus vaccine strain 17D
BVDV (strain NADL) = assay: Cell Protection Assay (CPA); type: cell-based, Bovine Viral Diarrhea virus
Procedure: The assay was performed essentially as described by Baginski, S. G.; Pevear, D. C.; Seipel, M.; Sun, S. C. C.; Benetatos, C. A.; Chunduru, S. K.; Rice, C. M. and M. S. Collett “Mechanism of action of a pestivirus antiviral compound” PNAS USA 2000, 97(14), 7981-7986. MDBK cells (ATCC) were seeded onto 96-well culture plates (4,000 cells per well) 24 hours before use. After infection with BVDV (strain NADL, ATCC) at a multiplicity of infection (MOI) of 0.02 plaque forming units (PFU) per cell, serial dilutions of test compounds were added to both infected and uninfected cells in a final concentration of 0.5% DMSO in growth medium. Each dilution was tested in quadruplicate. Cell densities and virus inocula were adjusted to ensure continuous cell growth throughout the experiment and to achieve more than 90% virus-induced cell destruction in the untreated controls after four days post-infection. After four days, plates were fixed with 50% TCA and stained with sulforhodamine B. The optical density of the wells was read in a microplate reader at 550 nm. The 50% effective concentration (EC50) values were defined as the compound concentration that achieved 50% reduction of cytopathic effect of the virus. FIGS. 4 and 5 provide a graphical illustration of the methodology used to arrive at the 50% effective concentration (EC50) values for β-D-2′-CH3-riboG and ribavirin. FIG. 6 compares the results of the CPA for β-D-2′-CH3-riboG, β-D-2′-CH3-riboC, riboU, β-D-2′-CH3-riboA and ribavirin

[2] = test system: PICO (Cosxackie B1 and Polio Sabin); assay: organism not typed; type: cell-based; settings: Vero, read-out: Comparative Antiviral Activity EC50 PICO
BVDV (NADL strain) = assay: Yield Reduction Assay; type: cell-based, Bovine Viral Diarrhea virus
Procedure: The assay was performed as described by Baginski, S. G.; Pevear, D. C.; Seipel, M.; Sun, S. C. C.; Benetatos, C. A.; Chunduru, S. K.; Rice, C. M. and M. S. Collett “Mechanism of action of a pestivirus antiviral compound” PNAS USA 2000, 97(14), 7981-7986, with minor modifications. Briefly, MDBK cells were seeded onto 24-well plates (2×10^5 cells per well) 24 hours before infection with BVDV (NADL strain) at a multiplicity of infection (MOI) of 0.1 PFU per cell. Serial dilutions of test compounds were added to cells in a final concentration of 0.5% DMSO in growth medium. Each dilution was tested in triplicate. After three days, cell cultures (cell monolayers and supernatants) were lysed by three freeze-thaw cycles, and virus yield was quantified by plaque assay. Briefly, MDBK cells were seeded onto 6-well plates (5×10^5 cells per well) 24 h before use. Cells were inoculated with 0.2 mL of test lysates for 1 hour, washed and overlaid with 0.5% agarose in growth medium. After 3 days, cell monolayers were fixed with 3.5% formaldehyde and stained with 1% crystal violet (w/v in 50% ethanol) to visualize plaques. FIG. 9 is a graphical illustration of the results from the Yield Reduction Assay. FIG. 8 is an image of BVDV yield reduction in the presence of increasing concentrations of β-D-2′-CH3-riboC.

in vitro [3] = settings: cattle
in vitro [4] = assay: in vitro
[5] = test system: Human bone marrow cells (BFU-E); assay: Human bone marrow toxicity, BFU-E clonogenic assay; type: cell-based; settings: human bone marrow colony formation, 14 to 18 days
From the text: (§2) Human bone marrow cells were collected from normal healthy volunteers and the mononuclear population was separated by Ficoll-Hypaque gradient centrifugation as described previously by Sommadossi J-P, Carlisle R. “Toxicity of 3′-azido-3′-deoxythymidine and 9-(1,3-dihydroxy-2-propoxymethyl)guanine for normal human hematopoietic progenitor cells in vitro” Antimicrobial Agents and Chemotherapy 1987; 31:452-454; and Sommadossi J-P, Schinazi R F, Chu C K, Xie M-Y. “Comparison of cytotoxicity of the (−)- and (+)-enantiomer of 2′,3′-dideoxy-3′-thiacytidine in normal human bone marrow progenitor cells” Biochemical Pharmacology 1992; 44:1921-1925. The culture assays for CFU-GM and BFU-E were performed using a bilayer soft agar or methylcellulose method. Drugs were diluted in tissue culture medium and filtered. After 14 to 18 days at 37° C. in a humidified atmosphere of 5% CO2 in air, colonies of greater than 50 cells were counted using an inverted microscope. The results in Table 4 are presented as the percent inhibition of colony formation in the presence of drug compared to solvent control cultures.

BVDV = assay: Plaque Reduction Assay; type: cell-based, Bovine Viral Diarrhea virus
Procedure: For each compound the effective concentration was determined in duplicate 24-well plates by plaque reduction assays. Cell monolayers were infected with 100 PFU/well of virus. Then, serial dilutions of test compounds in MEM supplemented with 2% inactivated serum and 0.75% of methyl cellulose were added to the monolayers. Cultures were further incubated at 37° C. for 3 days, then fixed with 50% ethanol and 0.8% Crystal Violet, washed and air-dried. FIG. 7 is a graphical illustration of the results from the Plaque Reduction Assay. FIG. 8 is an image of BVDV plaque formation in the presence of increasing concentrations of β-D-2′-CH3-riboU.

[6] = test system: Human bone marrow cells (CFU-GM); assay: Human bone marrow toxicity, CFU-GM clonogenic assay; type: cell-based; settings: read-out: IC50 CFU-GM
From the text: as §2

[7] = Cytotoxicity assay (sulforhodamine B, CC50), MDBK; type: cell-based; settings: cattle; MDBK cells, 4 days incubation
Procedure: as §1

HepG2 cells = assay: Mitochondria toxicity assay (L-lactic acid assay); type: cell-based; settings: 4 day drug exposure
Procedure: HepG2 cells were cultured in 12-well plates as described above and exposed to various concentrations of drugs as taught by Pan-Zhou X-R, Cui L, Zhou X-J, Sommadossi J-P, Darley-Usmer V M. “Differential effects of antiretroviral nucleoside analogs on mitochondrial function in HepG2 cells” Antimicrob Agents Chemother 2000; 44:496-503. Lactic acid levels in the culture medium after 4 day drug exposure was measured using a Boehringer lactic acid assay kit. Lactic acid levels were normalized by cell number as measured by hemocytometer count.

[8] = test system: Bovine Viral Diarrhea virus (BVDV); assay: microbe, parasite or virus in culture; type: cell-based
VSV = assay: microbe, parasite or virus in culture; type: cell-based; settings: Vesicular stomatitis virus, read-out: Comparative Antiviral Activity EC50 VSV
HIV-1 = assay: Comparative antiviral activity (EC50), HIV-1; type: cell-based; settings: Human immunodeficiency virus 1; Table 11
[9] = Huh7 cells (human hepatoma), Huh7 cells
[10] = Yellow fever virus, read-out: Comparative Antiviral Activity EC50 YFV
[11] = Bovine viral diarrhea virus isolates and strains, 96 h, MDBK cells infected with BVDV, 50% reduction of cytopathic effect, four days, read-out: EC50
[12] = Bovine viral diarrhea virus isolates and strains, Table 13, BVDV, read-out: Cell Protection (EC50)
[13] = Bovine viral diarrhea virus isolates and strains, Table 13, BVDV
[14] = Bovine viral diarrhea virus isolates and strains, Table 13, BVDV, 90% virus suppression, read-out: Plaque Reduction (EC90)
[15] = Bovine viral diarrhea virus isolates and strains, read-out: Comparative Antiviral Activity EC50 BVDV

For `NC(=O)c1ncn([C@@H]2O[C@H](CO)[C@@H](O)[C@H]2O)n1` [Ribavirin, reference compound], the CC50 at 4 days ([1]; HepG2 cells (human hepatoma), HepG2 cells, read-out: CC50 HepG2) was 150 µM, the CC50 at 4 days ([1]; Huh7 cells (human hepatoma), Huh7 cells, read-out: CC50 Huh7) was 25 µM and the EC50 at 4 days [1, 9] was 20 µM. For the same compound, the EC50 (YFV-17D; [10]) was 30 µM, the EC50 (BVDV (strain NADL); [11]) was > 3 µM and the EC50 (BVDV (strain NADL); [12]) was > 3 µM. For the same compound, the EC50 [2] was > 30 µM, the “Yield Reduction 6 log10 reduction (μM)” value (BVDV (NADL strain)) was “toxic” and the EC90 (BVDV (NADL strain); [13]) was > 20 µM. It also gave a CC50 (in vitro [3]) of 5 µM, a CC50 (in vitro [4]; African green monkey) of 11 µM and a CC50 (in vitro [4]; hamster) of 50 µM. For the same compound, the IC50 ([5]; Bone marrow cell) was ~1 µM, the EC90 (BVDV; [14]) was > 200 µM and the IC50 ([6]; Homo sapiens, CFU-GM) was ~5 µM. For the same compound, the CC50 at 4 days [7] was 5 µM.

Compound `C[C@@]1(O)[C@H](O)[C@@H](CO)O[C@H]1n1ccc(N)nc1=O` [β-D-2′-CH3-riboC] has a CC50 (MDBK cells) of 100 µM, an EC50 (YFV-17D; Table 12, reduce the plaque number by 50%, YFV-BHK, read-out: YFV EC50) of 70 µM and an EC50 (BVDV (strain NADL); read-out: Cell Protection (EC50)) of 2 µM. For the same compound, the EC50 (BVDV (strain NADL); read-out: EC50) was 2 µM, the CC50 (various cell systems) was > 100 µM and the CC50 (various cell systems; read-out: YFV CC50, Table 12, reduce the viability of cells by 50%, YFV-BHK system) was > 100 µM. For the same compound, the “Conc. for 6-log Reduction” value (BVDV (NADL strain)) was 20 μM, the EC90 (BVDV (NADL strain)) was < 4 µM and the “Yield Reduction 6 log10 reduction (μM)” value (BVDV (NADL strain)) was 20 μM. The lactate (HepG2 cells; Conc. 1 μM) was 2.52 mg/10^6 cell, the “lactate % of Control” value (HepG2 cells; Conc. 1 μM) was 115.3% and the lactate (HepG2 cells; Conc. 10 μM) was 2.36 mg/10^6 cell. The “lactate % of Control” value (HepG2 cells; Conc. 10 μM) was 107.9%, the lactate (HepG2 cells; Conc. 50 μM) was 2.26 mg/10^6 cell and the “lactate % of Control” value (HepG2 cells; Conc. 50 μM) was 103.4%. The lactate (HepG2 cells; Conc. 100 μM) was 2.21 mg/10^6 cell, the “lactate % of Control” value (HepG2 cells; Conc. 100 μM) was 101.2% and the EC50 ([8]; read-out: BVDV EC50) was 3.7 µM. The IC50 [5] was > 10 µM, the EC90 (BVDV; read-out: EC90) was < 9 µM and the EC90 (BVDV; read-out: Plaque Reduction (EC90)) was < 9 µM. The IC50 ([6]; human bone marrow colony formation, 14 to 18 days) was > 10 µM.

In the case of `C[C@@]1(n2cnc3c(N)ncnc32)O[C@H](CO)[C@H](O)C1O` (stereo partly drawn) [β-D-1′-CH3-riboA, 1′-C-methylriboadenine], the EC50 (YFV-17D; [10]) is reported as 7 µM, the EC50 [2] is reported as 51 µM and the EC50 (VSV) is reported as > 100 µM. For the same compound, the CC50 (in vitro [4]) was > 100 µM, the CC50 (in vitro [4]; African green monkey) was > 100 µM and the CC50 (in vitro [4]; hamster) was 200 µM. The CC50 (in vitro [4]; human) was 18 µM, the EC50 [8, 15] was 10 µM and the EC50 (HIV-1) was > 18 µM.

For `CC1(O)[C@@H](O)[C@@H](CO)O[C@H]1n1cnc2c(N)ncnc21` (stereo partly drawn) [β-D-2′-CH3-riboA, 2′-C-methylriboadenine], the EC50 at 4 days [1, 9] was 50 µM, the EC50 (YFV-17D; [10]) was 0.2 µM and the EC50 (BVDV (strain NADL); [11]) was 2 µM. For the same compound, the EC50 (BVDV (strain NADL); [12]) was 2 µM, the EC50 [2] was 5 µM and the “Conc. for 6-log Reduction” value (BVDV (NADL strain)) was 9 μM. For the same compound, the “Yield Reduction 6 log10 reduction (μM)” value (BVDV (NADL strain)) was 9 μM, the EC90 (BVDV (NADL strain); [13]) was < 2 µM and the CC50 (in vitro [3]) was 20 µM. For the same compound, the EC50 (VSV) was > 100 µM, the CC50 (in vitro [4]) was 75 µM and the CC50 (in vitro [4]; African green monkey) was 22 µM. For the same compound, the CC50 (in vitro [4]; hamster) was 22 µM, the CC50 (in vitro [4]; human) was 6.6 µM and the EC50 [8, 15] was 0.1 µM. The IC50 ([5]; Bone marrow cell) was > 100 µM, the EC90 (BVDV; Bovine viral diarrhea virus isolates and strains, 72 h, concentration to obtain 90% virus suppression, 3 days, read-out: EC90) was < 3 µM and the EC90 (BVDV; [14]) was < 3 µM. The EC50 (HIV-1) was > 6.6 µM and the IC50 ([6]; Homo sapiens, CFU-GM) was > 100 µM.
